# Key:
# GSDMD [1] = target: T1, GSDMD (Homo sapiens, UniProt P57764); assay: Recombinant GSDMD cleavage by caspase-4; type: biochemical; details: 10 μM
# T1 sequence (P57764 1-484): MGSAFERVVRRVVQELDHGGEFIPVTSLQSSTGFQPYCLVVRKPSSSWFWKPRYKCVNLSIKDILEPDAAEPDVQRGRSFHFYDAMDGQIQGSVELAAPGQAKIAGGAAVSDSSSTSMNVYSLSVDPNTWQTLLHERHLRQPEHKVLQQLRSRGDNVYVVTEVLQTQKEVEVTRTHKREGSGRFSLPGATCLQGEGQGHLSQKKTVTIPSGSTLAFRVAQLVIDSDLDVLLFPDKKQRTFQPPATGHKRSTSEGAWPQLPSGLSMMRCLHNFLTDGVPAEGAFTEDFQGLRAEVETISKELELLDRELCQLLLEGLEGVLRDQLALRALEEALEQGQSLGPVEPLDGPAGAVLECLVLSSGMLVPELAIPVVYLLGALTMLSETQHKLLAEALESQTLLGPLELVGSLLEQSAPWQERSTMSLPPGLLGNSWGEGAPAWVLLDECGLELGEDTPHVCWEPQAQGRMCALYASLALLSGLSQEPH
# Experimental: 1 μg recombinant GSDMD ([Aglietti et al., 2016]) was incubated with 10 μM LDC7559, 30 μM zVAD-fmk, or DMSO vehicle for 20 min, and then combined with 0.15 μg recombinant caspase-4 (750 mU; Abcam) in 20 μL of 50 mM HEPES, pH 7.2, 50 mM NaCl, 0.1% Chaps, 10 mM EDTA and 5% glycerol for 30 min at 37°C.
# GSDMD [2] = target: T1, GSDMD; assay: TR-FRET liposome cargo release (GSDMD pore formation); type: biochemical; details: 10 μM
# Experimental: GSDMD-dependent liposome cargo release was conducted by Confluence Discovery Technologies with modifications to the procedure described previously ([Aglietti et al., 2016]). Briefly, liposomes with an encapsulated cargo of europium-chelate conjugated biotin were formed from a lipid mixture of DOPC:DOPE (1:1). 0.15 mg/mL of cargo-loaded liposomes were mixed with 0.3 μM of recombinant GSDMD and incubated with 10 μM LDC7559, 10 μM disulfiram or DMSO vehicle. 0.15 μM caspase-4 and 50 nM streptavidin-Alexa Fluor 647 were added and TR-FRET was read over 1 h using a PHERAstar FSX Microplate Reader (BMG Labtech) equipped with a TR-FRET module.
# PMNs [3] = assay: NADPH/NADP+ detection assay in neutrophils; type: cell-based, human
# Experimental: The ratio of NADPH/NADP^+ (or NADH/NAD^+) was calculated after measuring the individual concentrations of NADPH and NADP^+ (or NADH and NAD^+) with NADP/NADPH-Glo (or NAD/NADH-Glo) assays (Promega). […] Cells were lysed in plates by addition of 1% dodecyltrimethylammonium bromide (DTAB). To measure NADPH, half of the samples was heated at 60 °C for 30 min. The other half was treated with HCl before heating to 60°C, to measure NADP^+. All samples were neutralized before adding luciferase detection reagent, then incubated for 1 h with gentle shaking. Luminescence was recorded on a plate reader (Envision).
# PMNs [4] = assay: LC-MS of glycolysis and pentose phosphate pathway metabolites; type: cell-based, human
# Experimental: Neutrophils (1 × 10^7) were untreated or pretreated with 0.5 μM NA-11 for 25 min, and then activated with 50 nM PMA for 30 min. Cell were washed twice in D-PBS and frozen in liquid nitrogen. Metabolites were extracted following protein precipitation using 500 μL cold (−80°C) MeOH:H2O (8:2, V:V) mixture. Aliquots (250 μL) were evaporated and reconstituted with 75 μL of MeOH:H2O (8:2, V:V) containing a series of stable isotope labeled internal standards. LC-MS analysis was performed on a Shimadzu Nexera HPLC series system (Shimadzu, Kyoto, Japan) couple with a Thermo Q Exactive Plus Hybrid Quadrupole-Orbitrap Mass Spectrometer (Thermo Fisher Scientific, Waltham, MA, USA). A Phenomenex Luna NH2 HPLC column (100 Å, 250 mm × 2 mm × 3 μm, Phenomenex, Torrance, CA, USA) was used to separate the analytes of interest. Samples (5 μL) were analyzed under Heated Electrospray Ionization (HESI) in negative mode with a flow rate of 0.4 mL/min and a total run time of 50 min. The mobile phases consisted of (A) 20 mM ammonium hydroxide and 20 mM ammonium acetate in H2O and (B) acetonitrile. The gradient was 0 min, 85% B; 0.5 min, 85% B; 15 min, 0% B; 38 min, 0% B; 40 min, 85% B; 50 min, 85% B. The autosampler temperature was 4°C, and the column temperature was 40°C. The Q Exactive Plus Mass Spectrometer parameters were: sheath gas flow rate, 50 units; aux gas flow rate, 13 units; aux gas temperature, 425°C; capillary temperature, 263°C; spray voltage, −2500 V; scan mode, full MS; scan range, 60-900 m/z; resolution, 70,000; AGC target, 3 × 10^6; maximum IT, 200 ms. Data was processed with TraceFinder (Thermo Fisher Scientific, Waltham, MA, USA). %RSDs of a series of stable isotope-labeled internal standards were calculated to check system suitability and data robustness. Relative MS peak area ratio (Peak Area of Analyte / Peak Area of Internal Standard) was used for compound quantification. […] Pyruvate concentration was quantified using a calibration curve of chemical standard (with stable isotope labeled internal standard, Pyruvate-^13C3) in the surrogate matrix.
# [5] = tested on: human bronchial epithelial cells (HBECs); assay: Epithelial barrier tissue damage assay (FITC-dextran); type: cell-based; details: PMA-activated neutrophils on HBECs
# Experimental: Human bronchial epithelial cells (HBECs) (4 × 10^4 in […] complete PneumaCult-Ex plus medium) were added to a HTS Transwell-96 permeable support plate (polyester membrane with a 0.4 μm pores) and immersed in receiver plates containing 150 μL of complete PneumaCult-Ex plus medium for 3 days. The medium on confluent monolayers was then replaced with RPMI medium containing neutrophils (4 × 10^4) in RPMI buffer that were previously treated with 5 μM NA-11, 100 μM apocynin, 5 μM NA-4, or DMSO vehicle and then activated with 100 nM PMA. The transwell plate was cultured in a new receiver plate containing 150 μL Hank’s balanced salt solution (HBSS) for 2 h. 10 μL of DMEM supplemented with 5% FBS and 2 mM L-glutamine were added to each well and the plate was incubated for additional 18 h. To measure the permeability of the epithelial barrier, FITC-dextran (200 μg/mL) and DNase-1 (22 Units/mL) were added to the apical side for 1 h. FITC-dextran in the receiver plate was measured (ex: 494 em: 521).
# [6] = in the context of PMA activation
SMILES,cleavage of recombinant GSDMD by caspase-4 (GSDMD [1]),liposome permeabilization by GSDMD pore-forming fragment (GSDMD [2]),"NADPH replenishment / turnover after apocynin (PMNs [3]; PMA 30 min, then apocynin)",NADPH/NADP+ ratio in resting cells (PMNs [3]; resting neutrophils),"levels of FBP (PMNs [4]; compound alone, no PMA)","glycolysis metabolites (FBP, DHAP, G-3-P) (PMNs [4]; [6])",pentose phosphate pathway metabolites (PMNs [4]; [6]),protection of epithelial layer from neutrophil-induced oxidative damage [5]
"COc1ccccc1-c1cc2n(n1)Cc1ccc(NC(C)=O)cc1OC2 [LDC7559, reference compound]",did not inhibit cleavage of recombinant GSDMD by caspase-4,nor did it prevent the GSDMD pore-forming fragment from permeabilizing liposomes,,,,,,
CC(=O)Nc1ccc2c(c1)OCc1cc(-c3ccccc3C#CCCCO)nn1C2 [NA-11],,,slower to replenish NADPH,did not change the NADPH/NADP^+ ratio,slightly increased levels of FBP,increased glycolysis metabolites,maintained pentose phosphate pathway metabolites at baseline levels,protected the epithelial layer
